# Assay results published in patent US6803195B1, “Facile detection of cancer and cancer risk based on level of coordination between alleles” (Ramot At Tel-Aviv University Ltd., priority 1999, dated 2004).
# Key:
# [1] = system: lymphocytes of prostate cancer patients (CAP) and control subjects (BPH); assay: FISH determination of allelic loss in CAP and BPH lymphocytes with and without 5-azacytidine (Example 7); type: cell-based, human; settings: CAP samples 1-6 and BPH samples 1-6, presence vs absence of AZA
# Description: (§1) Each sample was set up for short-term culturing in F10 medium supplemented with 20% fetal calf serum (FCS), 3% phytohemagglutinin (PHA), 0.2% heparin, and 1% antibiotics (a standard solution of penicillin and streptomycin). Cultures were incubated at 37° C. for 72 hours and then colchicine (final concentration 0.1 μg/ml) was added to the culture for one hour, followed by hypotonic treatment (0.075 M KC1 at 37° C. for 15 minutes) and four washes each with a fresh cold 3:1 methanol: acetic acid solution. The cell suspensions were stored at −20° C. until used for fluorescence in situ hybridization (FISH). […]
# Slides were analyzed blindly on an Olympus BH2 fluorescent microscope, using a triple band-pass filter (Chroma technology). […] For each sample and for each treatment the frequency of SD, SS and DD cells out of the total population of cells containing two fluorescent signals was recorded (for details please see Dotan et al, Genes, Chromosomes & Cancer 27:270-277, 2000). For the determination of allelic losses at least 200 cells from the same preparation used for replication studied were analyzed for each tested sample. […]
# [2] = system: lymphocytes of control subjects (BPH); assay: FISH replication assay, lymphocytes of benign prostate hyperplasia (BPH) subjects grown with 5-azacytidine (Example 7); type: cell-based, human; settings: BPH samples; all tested loci; 10^-7M AZA
# Description: as §1
# Slides were analyzed blindly on an Olympus BH2 fluorescent microscope, using a triple band-pass filter (Chroma technology). […] For each sample and for each treatment the frequency of SD, SS and DD cells out of the total population of cells containing two fluorescent signals was recorded (for details please see Dotan et al, Genes, Chromosomes & Cancer 27:270-277, 2000). For the determination of allelic losses at least 200 cells from the same preparation used for replication studied were analyzed for each tested sample.
smiles,measurement,setting,value
"Nc1ncn([C@@H]2O[C@H](CO)[C@@H](O)[C@H]2O)c(=O)n1 [AZA, 5-azacytidine]","frequency of cells showing a loss of one copy of AML1, TP53, CMYC, RB1, D15Z1 and SNRPN",[1],Neither the CAP samples nor the BPH samples were affected
same,effect of AZA on the SD values,[2],no significant effect
